According to PMC10578352, “Identification of a Protein Arginine Methyltransferase 7 (PRMT7)/Protein Arginine Methyltransferase 9 (PRMT9) Inhibitor” (Journal of Medicinal Chemistry, 2023):

Key:
MCF-7 cells = test system: MCF-7 cells; design: method as in PMID 35482954; details: cited from earlier work
human recombinant PRMT9 = target: T1, human recombinant PRMT9 (Homo sapiens, UniProt Q6P2P2); assay: AlphaLISA PRMT9 activity assay (modified BPS kit, biotinylated SF3B2 peptide); assay type: biochemical; details: for IC50: PRMT9 0.105 μM, biotinylated SF3B2 (500–519) peptide 100 nM, SAM 25 μM
T1 construct: human recombinant PRMT9 (2–845; N-terminal FLAG-tag, C-terminal His6-tag); FLAG (N); His6 (C); purchased BPS BioScience 79124
T1 sequence (Q6P2P2 2-845): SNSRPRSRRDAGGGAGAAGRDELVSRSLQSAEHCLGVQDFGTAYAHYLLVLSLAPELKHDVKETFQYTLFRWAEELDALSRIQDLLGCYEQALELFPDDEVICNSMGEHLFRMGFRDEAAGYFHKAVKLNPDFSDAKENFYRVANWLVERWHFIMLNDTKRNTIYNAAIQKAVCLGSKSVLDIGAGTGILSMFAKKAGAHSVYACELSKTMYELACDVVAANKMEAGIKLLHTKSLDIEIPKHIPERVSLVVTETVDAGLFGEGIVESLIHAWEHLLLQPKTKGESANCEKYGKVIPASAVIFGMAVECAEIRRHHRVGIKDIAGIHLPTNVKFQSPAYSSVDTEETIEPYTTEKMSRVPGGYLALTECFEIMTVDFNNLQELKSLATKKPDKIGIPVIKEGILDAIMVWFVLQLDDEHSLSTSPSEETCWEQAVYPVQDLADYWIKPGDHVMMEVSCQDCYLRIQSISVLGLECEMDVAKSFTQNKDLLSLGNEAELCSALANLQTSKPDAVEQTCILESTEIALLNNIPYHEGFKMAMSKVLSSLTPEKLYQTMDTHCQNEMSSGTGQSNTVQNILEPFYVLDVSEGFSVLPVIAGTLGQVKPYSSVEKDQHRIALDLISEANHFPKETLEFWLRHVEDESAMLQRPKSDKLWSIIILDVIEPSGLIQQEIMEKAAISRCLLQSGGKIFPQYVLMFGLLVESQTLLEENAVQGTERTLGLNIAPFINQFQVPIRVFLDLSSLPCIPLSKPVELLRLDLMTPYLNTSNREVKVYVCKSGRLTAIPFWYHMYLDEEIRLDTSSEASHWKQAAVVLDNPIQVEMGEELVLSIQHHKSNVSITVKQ
Description: Accordingly, all the enzymatic inhibition data were obtained by performing the assays in these optimized conditions.
The reaction was incubated for 60 min. Afterward, in each well, 5 μL of a 1:100 dilution of Primary antibody 28 (BPS BioScience, #52140Z3) in Detection buffer (BPS BioScience) and 5 μL of anti-Rabbit acceptor beads (PerkinElmer, #AL104C) were added to obtain a final concentration of 20 μg/mL.
For each incubation step, the OptiPlate was sealed with a protective foil to prevent evaporation and contamination. Donor and Acceptor beads were added to the mixture in subdued light.
The 100% activity (positive control) was reached using vehicle (DMSO), while 0% activity (negative control) was obtained without the protein. Data were analyzed by using Excel and Prism software. Values obtained for each compound are mean ± SD determined for three separate experiments.

[1] = test system: PRMT4-catalyzed arginine methylation in MCF-7 cells; design: method as in PMID 35482954; details: cited from earlier work
[2] = design: method as in PMID 35482954; details: cited from earlier work
PRMT6 = target: T2, PRMT6 (Homo sapiens, UniProt Q96LA8); assay: HotSpot radioisotope-based filter assay, PRMT6; assay type: biochemical; details: 5 μM GST-GAR, 3H-SAM 1 μM
T2 construct: PRMT6 (residues 2–375, C-terminus); with an N-terminal GST-tag; GST (N); purchased Reaction Biology Corporation
T2 sequence (Q96LA8 2-375): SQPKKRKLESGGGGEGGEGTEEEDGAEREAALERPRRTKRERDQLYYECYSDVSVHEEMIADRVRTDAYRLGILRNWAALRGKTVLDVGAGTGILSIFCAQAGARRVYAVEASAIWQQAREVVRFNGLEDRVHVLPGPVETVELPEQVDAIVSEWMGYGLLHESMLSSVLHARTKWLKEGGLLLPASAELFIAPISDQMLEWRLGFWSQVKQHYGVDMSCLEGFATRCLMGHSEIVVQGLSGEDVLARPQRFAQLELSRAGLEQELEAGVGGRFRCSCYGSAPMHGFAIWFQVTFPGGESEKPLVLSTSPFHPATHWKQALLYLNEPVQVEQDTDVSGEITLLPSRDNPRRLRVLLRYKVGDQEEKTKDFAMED
Description: (§1) Then, ^3H-SAM (final concentration of 1 μM) was delivered into the reaction mixture to initiate the reaction. After incubation for 60 min at 30 °C, the reaction mixture was delivered to filter-paper for detection (as assessed by scintillation). Data were analyzed using Excel and GraphPad Prism 6.0 software (GraphPad Software Inc., San Diego, CA) for IC50 curve fits using sigmoidal dose vs response - variable slope (four parameters) equations.

PRMT7 = target: T3, PRMT7 (Homo sapiens, UniProt Q9NVM4); assay: HotSpot radioisotope-based filter assay, PRMT7; assay type: biochemical; details: 5 μM GST-GAR, 3H-SAM 1 μM
T3 construct: PRMT7 (residues 2–692, C-terminus); with an N-terminal His-tag; His (N); purchased Reaction Biology Corporation
T3 sequence (Q9NVM4 2-692): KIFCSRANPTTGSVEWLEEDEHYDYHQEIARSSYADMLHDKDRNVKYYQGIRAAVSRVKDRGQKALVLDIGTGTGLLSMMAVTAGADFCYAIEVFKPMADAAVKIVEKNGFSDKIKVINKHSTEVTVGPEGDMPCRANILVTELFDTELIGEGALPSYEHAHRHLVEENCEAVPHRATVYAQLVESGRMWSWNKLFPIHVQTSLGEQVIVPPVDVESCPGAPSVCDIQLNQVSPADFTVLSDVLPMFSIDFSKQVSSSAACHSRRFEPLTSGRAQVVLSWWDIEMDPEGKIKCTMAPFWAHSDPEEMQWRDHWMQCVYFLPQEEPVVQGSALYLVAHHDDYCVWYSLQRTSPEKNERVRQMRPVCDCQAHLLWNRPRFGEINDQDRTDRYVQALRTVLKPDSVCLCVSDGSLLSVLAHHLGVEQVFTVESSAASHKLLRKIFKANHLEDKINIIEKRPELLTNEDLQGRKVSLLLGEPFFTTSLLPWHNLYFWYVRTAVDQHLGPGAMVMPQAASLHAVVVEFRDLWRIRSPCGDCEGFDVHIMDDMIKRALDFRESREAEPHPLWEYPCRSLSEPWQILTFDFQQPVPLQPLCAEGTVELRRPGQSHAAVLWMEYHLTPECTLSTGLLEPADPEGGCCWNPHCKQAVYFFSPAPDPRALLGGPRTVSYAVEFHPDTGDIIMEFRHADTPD
Description: as §1

PRMT8 = target: T4, PRMT8 (Homo sapiens, UniProt Q9NR22); assay: HotSpot radioisotope-based filter assay, PRMT8; assay type: biochemical; details: 5 μM histone H4, 3H-SAM 1 μM
T4 construct: (residues 61–394, C-terminus); with C- and N-terminal His-tags; His (N); His (C); purchased Reaction Biology Corporation
T4 sequence (Q9NR22 61-394): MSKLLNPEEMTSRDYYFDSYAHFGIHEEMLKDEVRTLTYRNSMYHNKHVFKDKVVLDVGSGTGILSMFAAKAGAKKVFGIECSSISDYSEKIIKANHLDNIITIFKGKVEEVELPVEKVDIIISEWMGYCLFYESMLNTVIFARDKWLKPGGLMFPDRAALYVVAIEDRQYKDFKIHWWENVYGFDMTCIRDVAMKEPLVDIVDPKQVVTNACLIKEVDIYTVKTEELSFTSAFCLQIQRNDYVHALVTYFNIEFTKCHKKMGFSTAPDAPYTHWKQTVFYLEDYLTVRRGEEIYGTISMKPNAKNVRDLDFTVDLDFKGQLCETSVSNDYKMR
Description: as §1

PRMT4 = target: T5, PRMT4 (Homo sapiens, UniProt Q86X55); assay: HotSpot radioisotope-based filter assay, PRMT4; assay type: biochemical; details: 5 μM histone H3, 3H-SAM 1 μM
T5 construct: PRMT4 (residues 2–608, C-terminus); with an N-terminal GST-tag; GST (N); purchased Reaction Biology Corporation
T5 sequence (Q86X55 2-608): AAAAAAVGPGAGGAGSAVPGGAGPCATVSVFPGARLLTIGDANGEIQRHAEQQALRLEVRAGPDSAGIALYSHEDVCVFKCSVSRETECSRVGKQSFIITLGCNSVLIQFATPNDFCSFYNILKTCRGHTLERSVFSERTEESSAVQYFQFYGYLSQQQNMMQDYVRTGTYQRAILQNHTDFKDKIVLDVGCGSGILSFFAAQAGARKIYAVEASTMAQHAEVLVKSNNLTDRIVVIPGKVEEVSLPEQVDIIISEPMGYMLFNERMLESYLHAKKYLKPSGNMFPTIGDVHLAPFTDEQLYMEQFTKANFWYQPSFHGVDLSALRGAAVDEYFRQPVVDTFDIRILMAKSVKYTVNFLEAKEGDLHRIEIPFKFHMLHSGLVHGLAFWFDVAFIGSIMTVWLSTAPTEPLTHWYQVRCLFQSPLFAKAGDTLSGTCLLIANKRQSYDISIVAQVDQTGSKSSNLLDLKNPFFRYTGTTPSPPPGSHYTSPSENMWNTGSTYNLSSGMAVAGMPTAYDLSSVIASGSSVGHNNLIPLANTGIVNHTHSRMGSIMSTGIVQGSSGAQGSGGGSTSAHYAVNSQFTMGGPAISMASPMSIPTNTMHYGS
Description: as §1

PRMT5/MEP50 complex = target: T6, PRMT5/MEP50 complex (Homo sapiens, UniProt O14744); assay: HotSpot radioisotope-based filter assay, PRMT5; assay type: biochemical; details: 5 μM histone H2A, 3H-SAM 1 μM
T6 construct: residues PRMT5 2–637, C-terminus, and MEP50 2–342, C-terminus; FLAG (N); purchased Reaction Biology Corporation
T6 sequence (O14744 2-637): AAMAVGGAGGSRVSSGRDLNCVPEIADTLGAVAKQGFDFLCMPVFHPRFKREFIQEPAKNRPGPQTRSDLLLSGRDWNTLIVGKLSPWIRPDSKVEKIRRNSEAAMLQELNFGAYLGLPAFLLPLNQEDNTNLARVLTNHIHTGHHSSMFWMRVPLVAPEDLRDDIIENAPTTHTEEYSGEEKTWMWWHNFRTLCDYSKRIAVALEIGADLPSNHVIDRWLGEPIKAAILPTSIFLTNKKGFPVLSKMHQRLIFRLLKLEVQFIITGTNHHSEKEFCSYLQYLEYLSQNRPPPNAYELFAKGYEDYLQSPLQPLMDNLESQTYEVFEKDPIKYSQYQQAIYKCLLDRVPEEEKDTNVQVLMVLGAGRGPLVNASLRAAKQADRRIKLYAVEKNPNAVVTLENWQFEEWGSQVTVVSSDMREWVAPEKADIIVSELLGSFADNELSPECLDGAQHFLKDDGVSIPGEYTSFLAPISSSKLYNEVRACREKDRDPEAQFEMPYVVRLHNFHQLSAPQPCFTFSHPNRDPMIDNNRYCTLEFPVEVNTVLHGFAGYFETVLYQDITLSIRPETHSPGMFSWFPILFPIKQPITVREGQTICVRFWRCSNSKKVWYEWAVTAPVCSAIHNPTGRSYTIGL
T6 sequence (Q9BQA1 2-342 partner limits assumed): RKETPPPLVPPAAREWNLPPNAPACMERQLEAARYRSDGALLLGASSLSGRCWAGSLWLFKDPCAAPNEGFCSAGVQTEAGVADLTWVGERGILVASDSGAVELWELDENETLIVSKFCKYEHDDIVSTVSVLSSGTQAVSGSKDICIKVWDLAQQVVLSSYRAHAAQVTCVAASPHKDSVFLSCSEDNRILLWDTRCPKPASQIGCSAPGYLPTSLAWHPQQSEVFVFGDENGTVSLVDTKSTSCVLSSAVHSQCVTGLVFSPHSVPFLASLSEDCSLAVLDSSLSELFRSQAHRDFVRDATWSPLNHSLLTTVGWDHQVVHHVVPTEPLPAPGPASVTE
Description: as §1

PRMT3 = target: T7, PRMT3 (Homo sapiens, UniProt O60678); assay: HotSpot radioisotope-based filter assay, PRMT3; assay type: biochemical; details: 5 μM histone H4, 3H-SAM 1 μM
T7 construct: PRMT3 (residues 2–531, C-terminus); with an N-terminal His-tag; His (N); purchased Reaction Biology Corporation
T7 sequence (O60678 2-531): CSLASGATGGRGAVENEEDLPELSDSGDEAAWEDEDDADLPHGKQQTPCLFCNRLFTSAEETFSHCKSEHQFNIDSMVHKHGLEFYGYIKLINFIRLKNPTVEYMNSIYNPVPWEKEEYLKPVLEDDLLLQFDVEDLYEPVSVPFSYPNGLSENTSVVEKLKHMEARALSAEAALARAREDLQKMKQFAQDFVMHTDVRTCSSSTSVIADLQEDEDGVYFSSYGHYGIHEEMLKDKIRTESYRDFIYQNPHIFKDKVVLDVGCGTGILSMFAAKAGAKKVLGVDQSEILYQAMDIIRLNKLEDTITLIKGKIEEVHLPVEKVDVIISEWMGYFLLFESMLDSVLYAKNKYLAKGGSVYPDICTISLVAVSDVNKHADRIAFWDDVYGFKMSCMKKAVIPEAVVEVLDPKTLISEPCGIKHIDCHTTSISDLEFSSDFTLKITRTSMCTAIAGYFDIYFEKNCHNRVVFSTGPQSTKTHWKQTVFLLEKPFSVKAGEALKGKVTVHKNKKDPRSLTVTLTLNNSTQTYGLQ
Description: as §1

PRMT1 = target: T8, PRMT1 (Homo sapiens, UniProt Q99873); assay: HotSpot radioisotope-based filter assay, PRMT1; assay type: biochemical; details: 5 μM histone H4, 3H-SAM 1 μM
T8 construct: PRMT1 (residues 2–371, C-terminus); with an N-terminal GST-tag; GST (N); purchased Reaction Biology Corporation
T8 sequence (Q99873 2-371): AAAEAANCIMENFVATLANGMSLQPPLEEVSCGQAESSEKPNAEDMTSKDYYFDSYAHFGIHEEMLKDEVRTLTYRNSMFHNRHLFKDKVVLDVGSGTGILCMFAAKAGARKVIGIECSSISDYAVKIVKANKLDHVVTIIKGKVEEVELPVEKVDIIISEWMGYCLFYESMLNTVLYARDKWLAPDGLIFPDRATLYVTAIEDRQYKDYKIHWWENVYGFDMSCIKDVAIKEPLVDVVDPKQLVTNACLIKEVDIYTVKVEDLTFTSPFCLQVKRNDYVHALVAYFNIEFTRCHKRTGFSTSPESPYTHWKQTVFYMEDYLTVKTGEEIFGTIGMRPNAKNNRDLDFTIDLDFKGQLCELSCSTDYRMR
Description: as §1

| IC50 (human recombinant PRMT9) [µM] | IC50 (PRMT6) [µM] | IC50 (PRMT7) [µM] | IC50 (PRMT8) [µM] | reduction in potency against PRMT9 compared to 1a (human recombinant PRMT9; AlphaLISA IC50 values) [fold] | IC50 (PRMT4) [µM] | IC50 (PRMT5/MEP50 complex) [µM] | IC50 (PRMT3) [µM] | IC50 (PRMT1) [µM] | SMILES | proliferation (MCF-7 cells) | PRMT4-catalyzed arginine methylation levels [1] | cell permeability [2] |
| --- | --- | --- | --- | --- | --- | --- | --- | --- | --- | --- | --- | --- |
| 9.3 | – | – | – | – | – | – | – | – | COC(=O)c1cc(O)c2cc(NC(=O)NCCCCNC(=N)NC/C=C/[C@H]3O[C@@H](n4cnc5c(N)ncnc54)[C@H](O)[C@@H]3O)ccc2c1 [1h] | marked reduction | evident reduction | low |
| 2.47 | 70 | 0.54 | 42 | 3 | 22.8 | 9.4 | > 100 | > 100 | COC(=O)c1cc(O)c2cc(NC(=O)NCCNC(=N)NC[C@H]3O[C@@H](n4cnc5c(N)ncnc54)[C@H](O)[C@@H]3O)ccc2c1 [1i, Methyl 6-(3-(2-(3-(((2R,3S,4R,5R)-5-(6-Amino-9H-purin-9-yl)-3,4-dihydroxytetrahydrofuran-2-yl)methyl)guanidino)ethyl)ureido)-4-hydroxy-2-naphthoate] | – | – | – |
